Data from patent US20110021575A1, “PENETRATION ENHANCERS FOR INSECTICIDAL AGENTS” (priority 2006, published 2011).

Assay: Penetration test: penetration of active substance through enzymatically isolated apple leaf cuticles in diffusion cells
Format: in vitro ADME, apple trees of the Golden Delicious variety
Conditions: cuticular penetration of imidacloprid, at 20° C., 60%, imidacloprid 0.3 g/l (ai alone) or 0.2 g/l (with surfactant), mean values of 5-8 repetitions
Description: In this test, the penetration of active substances through enzymatically isolated cuticles of apple tree leaves was measured.
Leaves which were cut off in the stage of full development of apple trees of the Golden Delicious variety were used. The isolation of the cuticles was effected in a manner such that • first leaf discs marked on the underside with dye and punched out were filled by means of vacuum infiltration with a pectinase solution (0.2 to 2% strength) buffered to a pH between 3 and 4, • sodium azide was then added and • the leaf discs thus treated were allowed to stand until disintegration of the original leaf structure and detachment of the noncellular cuticle.
Thereafter, only those cuticles of the upper sides of the leaves which were free of staltoa and hairs were further used. They were washed several times alternately with water and a buffer solution at pH 7. The clean cuticles obtained were finally drawn onto small Teflon plates and smoothed and dried with a gentle air jet.
In the next step, the cuticle membranes thus obtained were placed in stainless steel diffusion cells (=transport chambers) for membrane transport investigations. For this purpose, the cuticles were placed by means of forceps centrally on the silicone grease-coated edges of the diffusion cells and closed with a likewise greased ring. The arrangement was chosen so that the morphological outside of the cuticles faced outwards, i.e. towards the air, while the original inside faced the interior of the diffusion cell. The diffusion cells were filled with water or with a mixture of water and solvent. […]
After the application of the spray liquors, in each case the water was allowed to evaporate, and in each case the chambers were then turned around and were placed in thermostated trays, air having a defined temperature and atmospheric humidity being blown onto the outside of the cuticle. […] The active substance penetration was measured with radioactively marked active substance.

SMILES: O=[N+]([O-])NC1=NCCN1Cc1ccc(Cl)nc1 [Imidacloprid (ai), imidacloprid]
- Penetration after 5 hours (after 5 hours): 0.1%
- Penetration after 1 day (after 1 day): 0.3%
- Penetration after 2 days (after 2 days): 0.5%
